Assay results reported in patent publication US10377755B2, “BCL-2 inhibitors” (Newave Pharmaceutical Inc., priority 2016, dated 2019).
Blank lines part the entries; values can stand above or below the compound they belong to.

What was measured:
[1] = target: Bcl-2 (Homo sapiens (Human), UniProt P10415); assay: Bcl-2 competition binding (fluorescence polarization) assay; conditions: BH3 peptide, 3 hours incubation at room temperature
Experimental: Biological Example 1: Bcl-2 Competition Binding (Fluorescence Polarization) Assay
This binding assay was performed in 96-well plate and with each assay contained 15 and 30 nM of labeled peptide and purified Bcl-2 protein (purchased from R&D Systems, Inc). The assay buffer contained 20 mM Hepes (pH 7.0), 50 mM KCl, 5 mM MgCl2, 20 mM Na2MoO4, 0.1 mg/ml Bovine Gamma Globulin and 0.01% NP40. Compounds were diluted in DMSO and added to the final assay with concentration range from 20 uM to 2 nM. The polarization degree (mP) value was determined by BioTek Synergy II with background subtraction after 3 hours of incubation at room temperature. IC50 was calculated using Prism software with sigmoidal dose-response curve fitting. ABT-737 was used as reference compound. Such assays, carried out with a range of doses of test compounds, allow the determination of an approximate IC50 value.

[2] = cited from earlier work
[3] = cited from earlier work; remark: listed apart in the source
[4] = system: RS4;11; assay: In vitro anti-proliferation assay (ATPlite) in BCL-2-dependent acute lymphoblastic leukemia cell line RS4;11; assay type: cell-based; conditions: Homo sapiens, about 72 hours, 5% FBS
Experimental: Biological Example 2: In Vitro Anti-Proliferation Assay in BCL-2-Dependent Acute Lymphoblastic Leukemia Cell Line RS4;11
(§1) Cell antiproliferation is assayed by PerkinElmer ATPlite™ Luminescence Assay System. Briefly, the various test cancer cell lines are plated at a density of about 1×10^4 cells per well in Costar 96-well plates, and are incubated with different concentrations of compounds for about 72 hours in medium supplemented with 5% FBS. One lyophilized substrate solution vial is then reconstituted by adding 5 mL of substrate buffer solution, and is agitated gently until the solution is homogeneous. About 50 μL of mammalian cell lysis solution is added to 100 μL of cell suspension per well of a microplate, and the plate is shaken for about five minutes in an orbital shaker at ˜700 rpm. This procedure is used to lyse the cells and to stabilize the ATP. Next, 50 μL substrate solution is added to the wells and microplate is shaken for five minutes in an orbital shaker at ˜700 rpm. Finally, the luminescence is measured by a PerkinElmer TopCount® Microplate Scintillation Counter. Such assays, carried out with a range of doses of test compounds, allow the determination of the cellular anti-antiproliferative IC50 of the compounds of the present invention. The following table lists the IC50 values of certain compounds of the invention.

[5] = system: H146; assay: In vitro anti-proliferation assay (ATPlite) in BCL-XL-dependent small cell lung cancer cell line H146; assay type: cell-based; conditions: for IC50: Homo sapiens, NCI-H146, about 72 hours, 5% FBS
Experimental: as §1, with “invention.” for “invention. The following table lists the IC50 values of certain compounds of the invention.”

[6] = target: Bcl-w (Homo sapiens (Human), UniProt Q92843); conditions: cited from earlier work
[7] = system: SCLC H146 cell line; conditions: read-out: IC50 against SCLC H146 cell line; cited from earlier work
[8] = system: H345 xenograft; conditions: 100 mg/kg/day, H345 xenograft model; cited from earlier work
[9] = system: xenograft models of small-cell lung cancer and acute lymphoblastic leukemia; conditions: single agent; cited from earlier work
[10] = system: circulating platelets; conditions: clinical trial, patients; cited from earlier work

Bcl-2, sequence (P10415 whole entry): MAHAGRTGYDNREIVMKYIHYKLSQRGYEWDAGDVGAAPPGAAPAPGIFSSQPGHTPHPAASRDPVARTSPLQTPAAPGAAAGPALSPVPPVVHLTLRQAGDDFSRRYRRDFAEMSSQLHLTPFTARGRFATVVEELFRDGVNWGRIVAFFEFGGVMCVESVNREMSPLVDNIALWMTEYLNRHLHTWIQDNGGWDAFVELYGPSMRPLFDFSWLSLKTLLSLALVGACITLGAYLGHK
Bcl-w, sequence (Q92843 whole entry): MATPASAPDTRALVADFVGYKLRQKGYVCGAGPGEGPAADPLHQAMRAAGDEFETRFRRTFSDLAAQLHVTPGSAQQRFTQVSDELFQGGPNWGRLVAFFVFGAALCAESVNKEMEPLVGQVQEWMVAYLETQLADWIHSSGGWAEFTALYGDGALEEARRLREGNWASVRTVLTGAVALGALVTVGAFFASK

Compound: CN(C)CC[C@H](CSc1ccccc1)Nc1ccc(S(=O)(=O)NC(=O)c2ccc(N3CCN(Cc4ccccc4-c4ccc(Cl)cc4)CC3)cc2)cc1[N+](=O)[O-] [ABT-737]
oral bioavailability [2]: not orally bioavailable
aqueous solubility [3]: low

Compound: CC1(C)CCC(CN2CCN(c3ccc(C(=O)NS(=O)(=O)c4ccc(NCC5CCOCC5)c([N+](=O)[O-])c4)c(-n4ncc5nc6[nH]ccc6cc54)c3)CC2)=C(c2ccc(Cl)cc2)C1 [Example 4, 4-(4-((4′-chloro-5,5-dimethyl-3,4,5,6-tetrahydro-[1,1′-biphenyl]-2-yl)methyl)piperazin-1-yl)-N-((3-nitro-4-(((tetrahydro-2H-pyran-4-yl)methyl)amino)phenyl)sulfonyl)-2-(pyrazolo[4,3-b]pyrrolo[3,2-e]pyridin-1(5H)-yl)benzamide]
IC50 [1]: < 10 nM
IC50 [4]: < 15 nM
BCL-2 selectivity concluded from H146 IC50 ([5]; BCL-XL dependent cell line H146): BCL-2 selective inhibitor
IC50 [5]: > 2000 nM

Compound: CC1(C)CCC(CN2CCN(c3ccc(C(=O)NS(=O)(=O)c4ccc(N5CCOCC5)c([N+](=O)[O-])c4)c(-n4ncc5nc6[nH]ccc6cc54)c3)CC2)=C(c2ccc(Cl)cc2)C1 [Example 8, 4-(4-((4′-chloro-5,5-dimethyl-3,4,5,6-tetrahydro-[1,1′-biphenyl]-2-yl)methyl)piperazin-1-yl)-N-((4-morpholino-3-nitrophenyl)sulfonyl)-2-(pyrazolo[4,3-b]pyrrolo[3,2-e]pyridin-1(5H)-yl)benzamide]
IC50 [1]: < 10 nM

Compound: CC1(C)CCC(c2ccc(Cl)cc2)=C(CN2CCN(c3ccc(C(=O)NS(=O)(=O)c4ccc(N[C@H](CCN5CCOCC5)CSc5ccccc5)c(S(=O)(=O)C(F)(F)F)c4)cc3)CC2)C1 [ABT-263]
IC50 [5]: 60 nM
Ki [6]: ≤ 1 nM
IC50 [7]: 110 nM
TGI [8]: 80%
treated tumors indicating at least a 50% reduction in tumor volume [8]: 20%
tumor response, oral administration alone [9]: complete tumor regressions
effect on number of circulating platelets [10]: rapid, concentration-dependent decrease

Compound: CC1(C)CCC(CN2CCN(c3ccc(C(=O)NS(=O)(=O)c4ccc(SCC5CCOCC5)c([N+](=O)[O-])c4)c(-n4ncc5nc6[nH]ccc6cc54)c3)CC2)=C(c2ccc(Cl)cc2)C1 [Example 11, 4-(4-((4′-chloro-5,5-dimethyl-3,4,5,6-tetrahydro-[1,1′-biphenyl]-2-yl)methyl)piperazin-1-yl)-N-((3-nitro-4-(((tetrahydro-2H-pyran-4-yl)methyl)thio)phenyl)sulfonyl)-2-(pyrazolo[4,3-b]pyrrolo[3,2-e]pyridin-1(5H)-yl)benzamide]
IC50 [1]: < 10 nM

Compound: CC1(C)CCC(CN2CCN(c3ccc(C(=O)NS(=O)(=O)c4ccc(NCC5(F)CCOCC5)c([N+](=O)[O-])c4)c(-n4ncc5nc6[nH]ccc6cc54)c3)CC2)=C(c2ccc(Cl)cc2)C1 [Example 12, 4-(4-((4′-chloro-5,5-dimethyl-3,4,5,6-tetrahydro-[1,1′-biphenyl]-2-yl)methyl)piperazin-1-yl)-N-((4-(((4-fluorotetrahydro-2H-pyran-4-yl)methyl)amino)-3-nitrophenyl)sulfonyl)-2-(pyrazolo[4,3-b]pyrrolo[3,2-e]pyridin-1(5H)-yl)benzamide]
IC50 [1]: < 10 nM
IC50 [4]: < 15 nM
IC50 [5]: > 2000 nM

Next, values leading:

IC50 [1]: < 10 nM
Compound: CC1(C)CCC(CN2CCN(c3ccc(C(=O)NS(=O)(=O)c4ccc(NCC5(F)CCN(C6COC6)CC5)c([N+](=O)[O-])c4)c(-n4ncc5nc6[nH]ccc6cc54)c3)CC2)=C(c2ccc(Cl)cc2)C1 [Example 14, 4-(4-((4′-chloro-5,5-dimethyl-3,4,5,6-tetrahydro-[1,1′-biphenyl]-2-yl)methyl)piperazin-1-yl)-N-((4-(((4-fluoro-1-(oxetan-3-yl)piperidin-4-yl)methyl)amino)-3-nitrophenyl)sulfonyl)-2-(pyrazolo[4,3-b]pyrrolo[3,2-e]pyridin-1(5H)-yl)benzamide]

IC50 [1]: < 10 nM
Compound: CC1(C)CCC(CN2CCN(c3ccc(C(=O)NS(=O)(=O)c4ccc(OCC5CCOCC5)c([N+](=O)[O-])c4)c(-n4ncc5nc6[nH]ccc6cc54)c3)CC2)=C(c2ccc(Cl)cc2)C1 [Example 18, 4-(4-((4′-chloro-5,5-dimethyl-3,4,5,6-tetrahydro-[1,1′-biphenyl]-2-yl)methyl)piperazin-1-yl)-N-((3-nitro-4-((tetrahydro-2H-pyran-4-yl)methoxy)phenyl)sulfonyl)-2-(pyrazolo[4,3-b]pyrrolo[3,2-e]pyridin-1(5H)-yl)benzamide]

IC50 [1]: < 10 nM
Compound: CN1CCC(CNc2ccc(S(=O)(=O)NC(=O)c3ccc(N4CCN(CC5=C(c6ccc(Cl)cc6)CC(C)(C)CC5)CC4)cc3-n3ncc4nc5[nH]ccc5cc43)cc2[N+](=O)[O-])CC1 [Example 13, 4-(4-((4′-chloro-5,5-dimethyl-3,4,5,6-tetrahydro-[1,1′-biphenyl]-2-yl)methyl)piperazin-1-yl)-N-((4-(((1-methylpiperidin-4-yl)methyl)amino)-3-nitrophenyl)sulfonyl)-2-(pyrazolo[4,3-b]pyrrolo[3,2-e]pyridin-1(5H)-yl)benzamide]

IC50 [1]: < 10 nM
Compound: CC1(C)CCC(CN2CCN(c3ccc(C(=O)NS(=O)(=O)c4ccc(OCC5(F)CCN(C6COC6)CC5)c([N+](=O)[O-])c4)c(-n4ncc5nc6[nH]ccc6cc54)c3)CC2)=C(c2ccc(Cl)cc2)C1 [Example 17, 4-(4-((4′-chloro-5,5-dimethyl-3,4,5,6-tetrahydro-[1,1′-biphenyl]-2-yl)methyl)piperazin-1-yl)-N-((4-((4-fluoro-1-(oxetan-3-yl)piperidin-4-yl)methoxy)-3-nitrophenyl)sulfonyl)-2-(pyrazolo[4,3-b]pyrrolo[3,2-e]pyridin-1(5H)-yl)benzamide]

IC50 [1]: < 10 nM
Compound: CC1(C)CCC(CN2CCN(c3ccc(C(=O)NS(=O)(=O)c4ccc(NC[C@@H]5CN(C6COC6)CCO5)c([N+](=O)[O-])c4)c(-n4ncc5nc6[nH]ccc6cc54)c3)CC2)=C(c2ccc(Cl)cc2)C1 [Example 15, (R)-4-(4-((4′-chloro-5,5-dimethyl-3,4,5,6-tetrahydro-[1,1′-biphenyl]-2-yl)methyl)piperazin-1-yl)-N-((3-nitro-4-(((4-(oxetan-3-yl)morpholin-2-yl)methyl)amino)phenyl)sulfonyl)-2-(pyrazolo[4,3-b]pyrrolo[3,2-e]pyridin-1(5H)-yl)benzamide]

IC50 [1]: < 10 nM
Compound: CN1CCC(F)(CNc2ccc(S(=O)(=O)NC(=O)c3ccc(N4CCN(CC5=C(c6ccc(Cl)cc6)CC(C)(C)CC5)CC4)cc3-n3ncc4nc5[nH]ccc5cc43)cc2[N+](=O)[O-])CC1 [Example 16, 4-(4-((4′-chloro-5,5-dimethyl-3,4,5,6-tetrahydro-[1,1′-biphenyl]-2-yl)methyl)piperazin-1-yl)-N-((4-(((4-fluoro-1-methylpiperidin-4-yl)methyl)amino)-3-nitrophenyl)sulfonyl)-2-(pyrazolo[4,3-b]pyrrolo[3,2-e]pyridin-1(5H)-yl)benzamide]
